Measurements reported in US20220249447A1, “CF3-, OCF3-, SCF3-, and SF5-Containing Antibacterial Agents” (Purdue Research Foundation, priority 2019, published 2022).
Converted amounts (≈) assume the structure as drawn.

Key:
[1] = test system: C. difficile NR-32904 (P30); assay: MIC against C. difficile NR-32904 (P30); assay type: cell-based; settings: Clostridioides difficile; read-out: MIC C. difficile NR-32904 (P30)
Procedure: (§1) Bacteria were cultured in cation-adjusted Mueller Hinton Broth (for strains in Tables 1-3) or Brain Heart Infusion broth (for Enterococcus faecium) or Tryptic Soy Broth (all other bacteria) in a 96-well plate at 37° C. for at least 20 hours. The MIC was classified as the lowest concentration where no visual growth of bacteria was observed. The minimum bactericidal concentration (MBC) was tested by spotting 4 μL from wells with no growth onto Tryptic Soy Agar (TSA) plates. Plates were incubated at 37° C. for at least 18 hours before recording the MBC.

[2] = test system: C. difficile NR-13435 (isolate 9); assay: MIC against C. difficile NR-13435 (isolate 9); assay type: cell-based; settings: Clostridioides difficile; read-out: MIC C. difficile NR-13435 (isolate 9)
Procedure: as §1

[3] = test system: MRSA USA300 cells; assay: Time-kill assay; assay type: cell-based; settings: for Δlog2 CFU/mL: MRSA USA300, 3× MIC or 6× MIC, up to 24 hours
Procedure: The time-kill analysis was performed as previously described^29. […] Aliquots (100 μL) were collected from each treatment after 0, 2, 4, 8, 12, and 24 hours of incubation at 37° C. and subsequently serially diluted in phosphate-buffered saline (PBS). Bacteria were then transferred to TSA plates and incubated at 37° C. for 18-20 hours before viable CFU/mL was determined (see FIG. 2).

[4] = test system: C. difficile NR-32895 (P19); assay: MIC against C. difficile NR-32895 (P19); assay type: cell-based; settings: Clostridioides difficile; read-out: MIC C. difficile NR-32895 (P19)
Procedure: as §1

[5] = test system: VRE ATCC 51575; assay: MIC, broth microdilution, VRE ATCC 51575; assay type: cell-based; settings: Enterococcus
Procedure: as §1

[6] = test system: C. difficile ATCC BAA 1801; assay: MIC against C. difficile ATCC BAA 1801; assay type: cell-based; settings: Clostridioides difficile, BAA1801; read-out: MIC C. difficile ATCC BAA 1801
Procedure: as §1

[7] = test system: C. difficile NR-13432 (isolate 6); assay: MIC against C. difficile NR-13432 (isolate 6); assay type: cell-based; settings: Clostridioides difficile; read-out: MIC C. difficile NR-13432 (isolate 6)
Procedure: as §1

[8] = test system: C. difficile NR-32883 (P2); assay: MIC against C. difficile NR-32883 (P2); assay type: cell-based; settings: Clostridioides difficile; read-out: MIC C. difficile NR-32883 (P2)
Procedure: as §1

[9] = test system: S. aureus; assay: MIC, broth microdilution, S. aureus; assay type: cell-based; settings: Staphylococcus aureus
Procedure: as §1

[10] = test system: E. faecalis ATCC 29212; assay: MIC, broth microdilution, E. faecalis ATCC 29212; assay type: cell-based; settings: Enterococcus faecalis, ATCC29212
Procedure: as §1

[11] = test system: L. monocytogenes ATCC 19115; assay: MIC, broth microdilution, L. monocytogenes ATCC 19115; assay type: cell-based; settings: Listeria monocytogenes, ATCC19115
Procedure: as §1

[12] = test system: MRSA ATCC 33592; assay: MIC, broth microdilution, MRSA ATCC 33592; assay type: cell-based, methicillin-resistant S. aureus; settings: Staphylococcus aureus
Procedure: All MRSA isolates were acquired from BEI Resources. The remaining bacteria were purchased from the American Type Culture Collection (ATCC).
as §1

[13] = test system: C. difficile ATCC 43255; assay: MIC against C. difficile ATCC 43255; assay type: cell-based; settings: Clostridioides difficile, ATCC43255; read-out: MIC C. difficile ATCC 43255
Procedure: as §1

[14] = test system: C. difficile NR-32891 (P13); assay: MIC against C. difficile NR-32891 (P13); assay type: cell-based; settings: Clostridioides difficile; read-out: MIC C. difficile NR-32891 (P13)
Procedure: as §1

[15] = test system: Neisseria gonorrhea strain 181; assay: MIC against Neisseria gonorrhea strain 181; assay type: cell-based
Procedure: as §1

Row | Compound | MIC [1] [µg/mL] | MIC [2] [µg/mL] | Bactericidal/Bacteriostatic [3] | Δlog2 CFU/mL [3] | MIC [4] [µg/mL] | MIC [5] [µg/mL] | MIC [6] [µg/mL] | MIC [7] [µg/mL] | MIC [8] [µg/mL] | MIC [9] [µg/mL] | MIC [10] [µg/mL] | MIC [11] [µg/mL] | MIC [12] [µg/mL] | MIC [13] [µg/mL] | MIC [14] [µg/mL] | MIC [15] [µg/mL]
1 | O=C(Nc1nnc(-c2cccs2)o1)c1ccc(S(F)(F)(F)(F)F)cc1 [HSGN-144, 4-(pentafluoro-sulfanyl)-N-(5-(thiophen-2-yl)-1,3,4-oxadiazol-2-yl)benzamide] | 0.125 (≈ 0.315 µM) | 0.015 (≈ 0.0378 µM) | Bactericidal | 3.96 | 0.06 (≈ 0.151 µM) | 2 (≈ 5.03 µM) | 0.03 (≈ 0.0755 µM) | 0.015 (≈ 0.0378 µM) | 0.003 (≈ 0.00755 µM) | 0.25 (≈ 0.629 µM) | 2 (≈ 5.03 µM) | 1 (≈ 2.52 µM) | 0.5 (≈ 1.26 µM) | 0.125 (≈ 0.315 µM) | 0.125 (≈ 0.315 µM) | –
2 | O=C(Nc1nnc(-c2cccs2)o1)c1ccc(SC(F)(F)F)cc1 [HSGN-148, N-(5-(thiophen-2-yl)-1,3,4-oxadiazol-2-yl)-4-((trifluoromethyl)thio)benzamide] | 0.5 (≈ 1.35 µM) | 0.5 (≈ 1.35 µM) | Bactericidal | 4.2 | 0.5 (≈ 1.35 µM) | 4 (≈ 10.8 µM) | 0.5 (≈ 1.35 µM) | 0.5 (≈ 1.35 µM) | 0.5 (≈ 1.35 µM) | 1 (≈ 2.69 µM) | 4 (≈ 10.8 µM) | 2 (≈ 5.39 µM) | 0.5 (≈ 1.35 µM) | 0.5 (≈ 1.35 µM) | 0.5 (≈ 1.35 µM) | 0.06 (≈ 0.162 µM)
3 | O=C(Nc1nnc(-c2ccc(Cl)s2)o1)c1ccc(SC(F)(F)F)cc1 [HSGN-210, N-(5-(5-chlorothiophen-2-yl)-1,3,4-oxadiazol-2-yl)-4-((trifluoromethyl)thio)benzamide] | 0.06 (≈ 0.148 µM) | 0.003 (≈ 0.00739 µM) | – | – | 0.03 (≈ 0.0739 µM) | 0.5 (≈ 1.23 µM) | 0.06 (≈ 0.148 µM) | 0.015 (≈ 0.037 µM) | 0.003 (≈ 0.00739 µM) | 0.25 (≈ 0.616 µM) | 0.5 (≈ 1.23 µM) | 0.25 (≈ 0.616 µM) | 0.25 (≈ 0.616 µM) | 0.007 (≈ 0.0172 µM) | 0.06 (≈ 0.148 µM) | 0.5 (≈ 1.23 µM)
4 | O=C(Nc1nnc(-c2cccc(Cl)c2)o1)c1ccc(SC(F)(F)F)cc1 [HSGN-204, N-(5-(3-chlorophenyl)-1,3,4-oxadiazol-2-yl)-4-((trifluoromethyl)thio)benzamide] | 0.015 (≈ 0.0375 µM) | 0.007 (≈ 0.0175 µM) | – | – | 0.007 (≈ 0.0175 µM) | 0.25 (≈ 0.625 µM) | 0.03 (≈ 0.075 µM) | 0.03 (≈ 0.075 µM) | 0.003 (≈ 0.0075 µM) | 0.125 (≈ 0.313 µM) | 0.25 (≈ 0.625 µM) | 0.125 (≈ 0.313 µM) | 0.125 (≈ 0.313 µM) | 0.003 (≈ 0.0075 µM) | 0.03 (≈ 0.075 µM) | 0.25 (≈ 0.625 µM)
5 | O=C(Nc1nnc(-c2cccs2)o1)c1ccc(OC(F)(F)F)cc1 [HSGN-145, N-(5-(thiophen-2-yl)-1,3,4-oxadiazol-2-yl)-4-(trifluoromethoxy)benzamide] | 1 (≈ 2.81 µM) | 0.5 (≈ 1.41 µM) | Bacteriostatic | 0.69 | 1 (≈ 2.81 µM) | 8 (≈ 22.5 µM) | 0.5 (≈ 1.41 µM) | 0.5 (≈ 1.41 µM) | 1 (≈ 2.81 µM) | 1 (≈ 2.81 µM) | > 8 | 8 (≈ 22.5 µM) | 1 (≈ 2.81 µM) | 0.5 (≈ 1.41 µM) | 2 (≈ 5.63 µM) | –
